According to patent publication US10155802B2, “Locally-active anticoagulants and anti-inflammatory agents” (priority 2011, dated 2018):

Key:
[1] = tested on: FeCl3-induced arterial thrombosis (carotid artery); assay: FeCl3-induced arterial model of thrombosis in rats (time to occlusion); assay type: in vivo; conditions: rat, single-bolus injection
Protocol: Male Sprague-Dawley rats (250-310 g; Charles River Laboratories, St-Constant, QC, Canada) were acclimated for at least 3 days prior to the start of the study. Animals were housed in microisolator cages and were kept on a 12-hr light/dark cycle with constant temperature and humidity. Food and water were provided ad libitum. Various anti-thrombotic agents and peptides of this invention were dissolved in saline (0.9% sodium chloride) prior to use.
The FeCl3-induced arterial model of thrombosis in rats was also generated as described by Wang and Xu (Wang 2005) with some modifications (Couture 2011). Briefly, rats were anesthetized with a 2.5% isoflurane/oxygen mixture and placed on a heat source (35-37° C.). An incision was made over the right carotid artery, and a segment of the artery was exposed via blunt dissection. A Doppler flow probe (Model MA1PRB, Transonic System Inc., Ithaca, N.Y., USA) connected to a perivascular flow module (TS420, Transonic System Inc., Ithaca, N.Y., USA) was then attached to the carotid artery to monitor blood flow. Data were collected and analyzed using the MP100 Biopac™ Systems (Biopac Systems, Santa Barbara, Calif., USA), and the AcgKnowledge™ software (Biopac Systems, Santa Barbara, Calif., USA), respectively. Baseline blood flow was recorded for a minimum of 15 minutes until readings stabilized. Aquasonic 100 gel (Parker Laboratories, Inc., Fairfield, N.J., USA) was added to help conductivity and any fluid accumulating at the site of surgery was removed during data sampling without touching the probe. […] One minute after drug administration, a piece of filter paper (Gel Blot Paper, GB003, Whatman, Piscataway, N.J., USA; 7 mm diameter) saturated with 20% FeCl3 (EMD Chemicals Inc., Gibbstown, N.J., USA) was placed on the exposed surface of the carotid artery and incubated for 3.5 minutes. During the application of FeCl3, the neck region was covered with aluminum foil. At the end of the incubation period, the filter paper was removed and the exposed carotid was covered with a saline-soaked gauze. Time to occlusion was defined as the time from the application of FeCl3 until blood flow decreased to zero. […] Preparing and processing each animal took approximately 1 hr and 7 animals were treated each day. Control animals were always included when the other treatments were being administered. For this reason, the number of animals in the control group is higher than that of the treated-groups.
Statistical analysis was conducted using GraphPad™ Prism (GraphPad Software Inc., San Diego Calif., USA). Data were analyzed using one-way ANOVA with post-hoc Bonferroni correction for multiple comparisons. The relationship between thrombus weight and thrombus volume was determined by linear regression. […]

pooled human plasma [2] = assay: Prothrombin time (PT, thromboplastin) clotting assay; assay type: biochemical; conditions: for IC50: 37° C., concentration that prolongs clotting time by 50%
Protocol: (§1) Prothrombin (clotting) time (PT) or activated partial thromboplastin (clotting) time (APTT) assays were carried out at certain concentrations of the thrombin inhibitors of the present invention using pooled human plasma with addition of thromboplastin or activated partial thromboplastin to initiate clotting. The assays employed kits from Biopool International (Ventura, Calif., USA) or from Pacific Haemostasis (Middletown, Va., USA) using the procedures supplied by the manufacturer. Briefly, the stock solution of an inhibitor (with the concentration determined using UV-based OD determination, see Gill 1989) is diluted in a buffer of 20 mM HEPES and 150 mM NaCl at pH 7.4 (HBS) to a final volume of 50 μL, to which is added the reconstituted normal plasma (Product #CMS-176172 from Fisher Scientific) in an equal volume. This solution mixture is equilibrated at 37° C. for 2 minutes before 50 μL of the APTT-10XL solution (CMS-022927) is introduced forcibly to ensure proper mixing. This new mixture was incubated at 37° C. for another 5 minutes, which is followed by the addition of 50 μL of 0.02 M […] (Fisher Scientific CMS-022925) pre-warmed at 37° C. For the prothrombin time (PT) assay, an inhibitor is diluted in HBS to a final volume of 25 μL, to which is added the reconstituted control plasma (Fisher Scientific CMS-176172) in an equal volume. This solution mixture is equilibrated at 37° C. for 5 minutes before addition of 100 μL of the thromboplastin solution (CMS-176099) pre-warmed at 37° C. For APTT assays, inhibitory activities of the peptides are expressed as concentrations needed to achieve 50% of the maximum delay in clotting time (MCT50) as compared to the absence of thrombin inhibitors (Maraganore 1989). For PT assays, inhibitory activities are measured as the concentrations of the peptides that prolong the clotting time by 50% (IC50) of that of the normal control plasma (Maraganore 1990). PT and APTT assays were also carried out using slightly modified experimental procedures. Thus, 50 μL of a control plasma (Pacific Hemostasis) solution was added to 100 μL HBS (20 mM HEPES and 150 mM NaCl at pH 7.4) containing varied concentrations of the peptides of this invention. After incubation at 37° C. for 5 min, the mixture was added to 50 μL of the thromboplastin or activated partial thromboplastin reagent. Clotting of the plasma was monitored by change in absorbance at 420 nm using a SpectraMax™ plate reader.

[3] = tested on: human coagulation proteome; assay: Synthetic coagulation proteome assay (thrombin generation); assay type: biochemical; conditions: 37° C.
Protocol: This assay is carried out using an established protocol as described previously (Brummel-Ziedens 2008). Briefly, a pro-cofactor solution containing re-lipidated tissue factor (10 pM; molar ratio PCPS:TF=5000) was incubated with 4 μM PCPS in HBS (20 mM HEPES and 150 mM NaCl at pH 7.4) and 2 mM CaCl2 for 8 min at 37° C. Factor V (40 nM) and Factor VIII (1.4 nM) were then added to the mixture prior to initiation of the reaction to activate the protease zymogens in the blood coagulation cascade. The activation reaction was initiated by addition of the pro-cofactor solution to a zymogen solution containing prothrombin (2.8 μM), Factor VII (20 nM), Factor Vila (0.2 nM), FX (340 nM), Factor IX (180 nM), Factor XI (60 nM), TFPI (5 nM), antithrombin III (6.8 μM) […]
At selected time points after initiation of the reaction, 10 μL aliquots were withdrawn from the reaction mixture and quenched in 20 mM EDTA in HBS (pH 7.4) containing 0.2 mM Spectrozyme™ TH and assayed immediately for the proteolytic activity of thrombin. The hydrolysis of Spectrozyme™ TH was monitored by the change in absorbance at 405 nm using a SpectraMax™ plate reader (Molecular Devices Corp., Menlo Park, Calif., USA). Concentration of thrombin generated by the reaction was calculated from a standard curve prepared by serial dilutions of known concentrations of α-thrombin using the fibrinogen clotting assay (DiMaio 1990). Fibrinogen solution was freshly prepared by dissolving about 0.5% (w/v) fibrinogen in 50 mM Tris-HCl, 100 mM NaCl, 0.1% PEG-8000, pH 7.6 and filtering the resulting solution through a hydrophilic membrane of 0.45 μm polyvinylidene fluoride (PVDF) with low protein binding. The concentration of fibrinogen after filtration was determined by using the extinction coefficient of 15.0 for 1% fibrinogen at 280 nm. […] Thrombin-induced clotting of fibrinogen was followed at 25° C. by measuring the optical absorbance at 420 nm. The clotting time was obtained from extrapolation of the slope at the point of inflection to the zero absorbance baseline. […]

pooled human plasma [4] = assay: Activated partial thromboplastin time (APTT) clotting assay; assay type: biochemical; conditions: 37° C.; concentration for 50% of maximum delay in clotting time; read-out: MTC50 (APTT)
Protocol: as §1

thrombin = thrombin (Homo sapiens, UniProt P00734); assay: Fibrinogen clotting assay (concentration needed to double the clotting time = IC50); assay type: biochemical
Protocol: The same enzyme kinetic assays were used to determine the inhibitory activities of MH2 and two MH2-derived peptides, MH2-allGS and MH2-GS (Table 4). Clotting assays were carried out to determine the inhibitory activities of the rest of the MH2 peptides by use of the protocols described previously (DiMaio 1990; Taka 2000; Su 2004). The assay employs bovine plasma fibrinogen dissolved at 0.1% in 50 mM Tris-Cl, 100 mM NaCl, 0.1% PEG-8000 at pH 7.6 (i.e. the clotting buffer). In addition to the use of optical densities or ODs (Gill 1989), concentrations of the peptide stock solutions were ranked (and corrected when necessary) by use of quantitative proton NMR spectroscopy (Cavaluzzi 2002). Each assay mixture contained a certain concentration of the peptide, and the reaction was started by the addition of human thrombin to a final concentration of approximately 0.5 nM. Optical absorbance of the assay mixtures was measured at 420 nm using the Spectramax™ plate reader. The onset clotting time was determined as an intersection of the baseline and the tangent line at point of inflection of the clotting curve. The concentration of an MH2 peptide needed to double the clotting time was defined as IC50 (DiMaio 1990) as illustrated in FIG. 4 and summarized in Table 4. The correlation between IC50 values and linker unfolding is similar to that for the BTI series of inhibitors (Table 3). […] (Table 3).

CC1CNc2c(cccc2S(=O)(=O)N[C@@H](CCCNC(=N)N)C(=O)N2CC[C@@H](C)C[C@@H]2C(=O)O)C1 (stereo partly drawn) [Argatroban, reference compound]
reduction of arterial occlusion [1]: consistently better efficacy

CC[C@H](C)[C@H](N)C(=O)N[C@@H](CCCNC(=N)N)C(=O)N[C@@H](Cc1ccccc1)C(=O)N[C@H](C(=O)N[C@@H](CC(=O)O)C(=O)NCC(=O)N[C@@H](CCC(=O)O)C(=O)NCC(=O)N[C@H](C(=O)NCC(=O)N[C@@H](CO)C(=O)NCC(=O)N[C@@H](CO)C(=O)NCC(=O)N[C@@H](CO)C(=O)NCC(=O)N[C@@H](CO)C(=O)NCC(=O)N[C@@H](CC(=O)O)C(=O)N[C@@H](Cc1ccccc1)C(=O)N[C@@H](CCC(=O)O)C(=O)N[C@@H](CCC(=O)O)C(=O)N[C@H](C(=O)N1CCC[C@H]1C(=O)N[C@@H](CCC(=O)O)C(=O)N[C@@H](CCC(=O)O)C(=O)N[C@@H](Cc1ccc(O)cc1)C(=O)N[C@@H](CC(C)C)C(=O)N[C@@H](CCC(N)=O)C(=O)O)[C@@H](C)CC)[C@@H](C)O)[C@@H](C)O [MH2-GS]
IC50 (pooled human plasma [2]): 0.2 µM
anticoagulant effect in PT versus APTT assays (pooled human plasma [2]; in words): more potent effect in delaying the prothrombin time as compared to APTT
delay of thrombin burst / onset of thrombin generation [3]: clear dose-dependency for the delay of thrombin burst
EC50 (pooled human plasma [4]): 0.9 µM

CC[C@H](C)[C@H](N)C(=O)N[C@@H](CCCNC(=N)N)C(=O)N[C@@H](Cc1ccccc1)C(=O)N[C@H](C(=O)N[C@@H](CC(=O)O)C(=O)NCC(=O)N[C@@H](CCC(=O)O)C(=O)N[C@@H](Cc1c[nH]c2ccccc12)C(=O)N[C@H](C(=O)N[C@@H](Cc1c[nH]c2ccccc12)C(=O)N[C@@H](CC(=O)O)C(=O)N[C@@H](CC(=O)O)C(=O)N[C@@H](C)C(=O)N[C@H](C(=O)N[C@@H](CCCCN)C(=O)N[C@H](C(=O)N[C@@H](Cc1c[nH]c2ccccc12)C(=O)N[C@H](C(=O)N[C@H](C(=O)N[C@H](C(=O)N[C@@H](CCC(=O)O)C(=O)NCC(=O)N[C@@H](CC(=O)O)C(=O)N[C@@H](Cc1ccccc1)C(=O)N[C@@H](CCC(=O)O)C(=O)N[C@@H](CCC(=O)O)C(=O)N[C@H](C(=O)N1CCC[C@H]1C(=O)N[C@@H](CCC(=O)O)C(=O)N[C@@H](CCC(=O)O)C(=O)N[C@@H](Cc1ccc(O)cc1)C(=O)N[C@@H](CC(C)C)C(=O)N[C@@H](CCC(N)=O)C(=O)O)[C@@H](C)CC)[C@@H](C)O)C(C)C)[C@@H](C)O)[C@@H](C)O)[C@@H](C)O)[C@@H](C)O)[C@@H](C)O [MH2-wZIP6]
concentrations required in PT-APTT curves relative to MH2-GS (pooled human plasma [2]): about 2.5 times
IC50 (pooled human plasma [2]): < 0.4 µM
IC50 (thrombin; IC50 (anti-clotting), T = 37° C.): 0.053 µM
EC50 (pooled human plasma [4]): 3 µM

CC[C@H](C)[C@H](N)C(=O)N[C@@H](CCCNC(=N)N)C(=O)N[C@@H](Cc1ccccc1)C(=O)N[C@H](C(=O)N[C@@H](CC(=O)O)C(=O)NCC(=O)N[C@@H](CCC(=O)O)C(=O)NCC(=O)N[C@H](C(=O)N1CCC[C@H]1C(=O)N[C@@H](CC(N)=O)C(=O)N1CCC[C@H]1C(=O)N[C@@H](CCC(=O)O)C(=O)N[C@@H](CO)C(=O)N[C@@H](Cc1c[nH]cn1)C(=O)N[C@@H](CC(N)=O)C(=O)N[C@@H](CC(N)=O)C(=O)NCC(=O)N[C@@H](CC(=O)O)C(=O)N[C@@H](Cc1ccccc1)C(=O)N[C@@H](CCC(=O)O)C(=O)N[C@@H](CCC(=O)O)C(=O)N[C@H](C(=O)N1CCC[C@H]1C(=O)N[C@@H](CCC(=O)O)C(=O)N[C@@H](CCC(=O)O)C(=O)N[C@@H](Cc1ccc(O)cc1)C(=O)N[C@@H](CC(C)C)C(=O)N[C@@H](CCC(N)=O)C(=O)O)[C@@H](C)CC)[C@@H](C)O)[C@@H](C)O [MH2]
IC50 (thrombin; IC50, printed inside the sequence cell of Table 1, temperature not stated): ~0.014 µM

Bivalirudin [reference compound]
IC50 (pooled human plasma [2]): 0.093 µM
reduction of arterial occlusion [1]: consistently better efficacy
